Molecules are shown by their SMILES.

What all share (type): in vivo
Experiment [1] relates to Echinochloa crus-galli (ECHCG). Description: Example A post-emergence herbicidal activity, glasshouse pot test. To be noted: 360 h, rate 125 g/ha, evaluated 15 days after spraying, read-out: Post-emergence activity ECHCG (100=total damage to plant; 0=no damage to plant). The protocol:
(§1) Seeds of a variety of test species were sown in standard soil in pots. After cultivation for one day (pre-emergence) or after 10 days cultivation (post-emergence) under controlled conditions in a glasshouse, the plants were sprayed with an aqueous spray solution derived from the formulation of the technical active ingredient in 0.6 ml acetone and 45 ml formulation solution containing 10.6% Emulsogen EL (Registry number 61791-12-6), 42.2% N-methylpyrrolidone, 42.2% dipropylene glycol monomethyl ether (Registry number 34590-94-8) and 0.2% X-77 (Registry number 11097-66-8). The test plants were then grown in a greenhouse under optimum conditions until, 15 days later for post-emergence and 20 days for pre-emergence, the test was evaluated (100=total damage to plant; 0=no damage to plant).
(§2) Alopecurus myosuroides (ALOMY), Avena fatua (AVEFA), Lolium perenne (LOLPE), Setaria faberi (SETFA), Digitaria sanguinalis (DIGSA), Echinochloa crus-galli (ECHCG)

For experiment [2], the system named is Alopecurus myosuroides (ALOMY). The experiment is described as above. The settings on record: 360 h, rate 125 g/ha, evaluated 15 days after spraying, read-out: Post-emergence activity ALOMY (100=total damage to plant; 0=no damage to plant). How it is done: as §1, §2
Experiment [3] has as its system Setaria faberi (SETFA). Described as above. The settings on record: 360 h, rate 125 g/ha, evaluated 15 days after spraying, read-out: Post-emergence activity SETFA (100=total damage to plant; 0=no damage to plant). The protocol:
as §1, §2

In experiment [4] the test system is Lolium perenne (LOLPE). Described as above. The settings on record: 360 h, rate 125 g/ha, evaluated 15 days after spraying, read-out: Post-emergence activity LOLPE (100=total damage to plant; 0=no damage to plant). How it is done: as §1, §2
Experiment [5] concerns Avena fatua (AVEFA). The experiment is described as above. The settings on record: 360 h, rate 125 g/ha, evaluated 15 days after spraying, read-out: Post-emergence activity AVEFA (100=total damage to plant; 0=no damage to plant). How it is done:
as §1, §2

The test system of experiment [6] is Digitaria sanguinalis (DIGSA). The experiment is described as above. To be noted: 360 h, rate 125 g/ha, evaluated 15 days after spraying, read-out: Post-emergence activity DIGSA (100=total damage to plant; 0=no damage to plant). The protocol: as §1, §2
Experiment [7] relates to Echinochloa crus-galli (ECHCG). Description: Example A pre-emergence herbicidal activity, glasshouse pot test. To be noted: 480 h, evaluated 20 days after spraying, read-out: Pre-emergence activity ECHCG (100=total damage to plant; 0=no damage to plant); for pest or weed control at 500 g/ha: rate 500 g/ha; for pest or weed control at 250 g/ha: rate 250 g/ha. The protocol: as §1, §2

For experiment [8], the system named is Alopecurus myosuroides (ALOMY). The description is as above. The settings on record: 480 h, evaluated 20 days after spraying, read-out: Pre-emergence activity ALOMY (100=total damage to plant; 0=no damage to plant); for pest or weed control at 500 g/ha: rate 500 g/ha; for pest or weed control at 250 g/ha: rate 250 g/ha. The protocol: as §1, §2
The test system of experiment [9] is Setaria faberi (SETFA). The description is as above. The settings on record: 480 h, evaluated 20 days after spraying, read-out: Pre-emergence activity SETFA (100=total damage to plant; 0=no damage to plant); for pest or weed control at 500 g/ha: rate 500 g/ha; for pest or weed control at 250 g/ha: rate 250 g/ha. The protocol:
as §1, §2

Experiment [10] relates to Lolium perenne (LOLPE). The experiment is described as above. The settings on record: 480 h, evaluated 20 days after spraying, read-out: Pre-emergence activity LOLPE (100=total damage to plant; 0=no damage to plant); for pest or weed control at 500 g/ha: rate 500 g/ha; for pest or weed control at 250 g/ha: rate 250 g/ha. How it is done: as §1, §2
Experiment [11] has as its system Avena fatua (AVEFA). Described as above. To be noted: 480 h, evaluated 20 days after spraying, read-out: Pre-emergence activity AVEFA (100=total damage to plant; 0=no damage to plant); for pest or weed control at 500 g/ha: rate 500 g/ha; for pest or weed control at 250 g/ha: rate 250 g/ha. The protocol:
as §1, §2

For experiment [12], the system named is Digitaria sanguinalis (DIGSA). The experiment is described as above. The settings on record: 480 h, evaluated 20 days after spraying, read-out: Pre-emergence activity DIGSA (100=total damage to plant; 0=no damage to plant); for pest or weed control at 500 g/ha: rate 500 g/ha; for pest or weed control at 250 g/ha: rate 250 g/ha. How it is done: as §1, §2

`Cc1ccc(-c2ccc(Cl)cc2)cc1C1=C(O)C(C)(C)OC(C)(C)C1=O` [Compound A-5]: the pest or weed control at 125 g/ha in experiment [1] came to 100%; in [2], 70%; in the experiment with Setaria faberi (SETFA) [3], 80%; in the experiment with Lolium perenne (LOLPE) [4] it was 70%; in the experiment with Avena fatua (AVEFA) [5] it was 70%; in [6] it was 100%. The pest or weed control at 500 g/ha in experiment [7] worked out at 100%; in experiment [8] it was 60%; with Setaria faberi (SETFA) [9], 100%; with Lolium perenne (LOLPE) [10], 50%; in the experiment with Avena fatua (AVEFA) [11], 50%; in experiment [12], 100%.
In the case of `CCc1ccc(-c2ccc(Cl)cc2)cc1C1=C(O)C(C)(C)OC(C)(CC)C1=O` (single isomer, unassigned) [Compound A-34], the pest or weed control at 125 g/ha was 100% in [1]; 70% in experiment [2]; 90% in the experiment on Setaria faberi (SETFA) [3]; 80% in the experiment on Lolium perenne (LOLPE) [4]; 20% in the experiment with Avena fatua (AVEFA) [5]; 90% in [6]. The pest or weed control at 250 g/ha in experiment [7] amounted to 100%; in experiment [8], 60%; with Setaria faberi (SETFA) [9], 100%; in the experiment on Lolium perenne (LOLPE) [10], 100%; in the experiment with Avena fatua (AVEFA) [11], 50%; in experiment [12], 100%.
Regarding `Cc1ccc(-c2ccc(Cl)cc2)cc1C1=C(O)[C@@]2(C)CC[C@](C)(O2)C1=O` [Compound A-40], the pest or weed control at 125 g/ha in [1] is 100%; in experiment [2] it was 70%; in the experiment with Setaria faberi (SETFA) [3] it was 70%; in the experiment on Lolium perenne (LOLPE) [4], 60%; in the experiment on Avena fatua (AVEFA) [5] it was 60%; in experiment [6] it was 70%. Moreover, the pest or weed control at 250 g/ha worked out at 70% in [7]; 30% in [8]; 70% with Setaria faberi (SETFA) [9]; 20% in the experiment with Lolium perenne (LOLPE) [10]; 10% with Avena fatua (AVEFA) [11]; 70% in experiment [12].
For `Cc1ccc(-c2ccc(Cl)c(F)c2)cc1C1=C(O)C(C)(C)OC(C)(C)C1=O` [Compound A-47], the pest or weed control at 125 g/ha in experiment [1] is 100%; in experiment [2] it was 90%; in the experiment on Setaria faberi (SETFA) [3], 50%; in the experiment with Lolium perenne (LOLPE) [4], 70%; with Avena fatua (AVEFA) [5], 90%; in experiment [6], 80%. Also, the pest or weed control at 250 g/ha in experiment [7] was determined as 70%; in experiment [8] it was 30%; with Setaria faberi (SETFA) [9] it was 60%; in the experiment with Lolium perenne (LOLPE) [10] it was 30%; in the experiment on Avena fatua (AVEFA) [11], 20%; in experiment [12] it was 70%.
As for `CCc1ccc(-c2ccc(Cl)c(Cl)c2)cc1C1=C(O)C(C)(C)OC(C)(C)C1=O` [Compound A-42], the pest or weed control at 125 g/ha worked out at 100% in [1]; 80% in experiment [2]; 100% in the experiment with Setaria faberi (SETFA) [3]; 70% in the experiment with Lolium perenne (LOLPE) [4]; 90% with Avena fatua (AVEFA) [5]; 100% in experiment [6]. The pest or weed control at 250 g/ha in experiment [7] turned out to be 80%; in experiment [8], 100%; with Setaria faberi (SETFA) [9] it was 100%; with Lolium perenne (LOLPE) [10], 50%; in the experiment on Avena fatua (AVEFA) [11], 30%; in [12], 100%.
`CCCCC(=O)OC1=C(c2cc(-c3ccc(Cl)cc3)ccc2CC)C(=O)C(C)(C)OC1(C)C` [Compound D-2]: the pest or weed control at 125 g/ha in experiment [1] stood at 90%; in experiment [2], 20%; in the experiment on Setaria faberi (SETFA) [3] it was 90%; in the experiment with Lolium perenne (LOLPE) [4] it was 20%; in the experiment on Avena fatua (AVEFA) [5], 10%; in experiment [6] it was 90%. The pest or weed control at 500 g/ha in experiment [7] was found to be 80%; in experiment [8] it was 30%; in the experiment with Setaria faberi (SETFA) [9], 100%; in the experiment on Lolium perenne (LOLPE) [10], 80%; in the experiment on Avena fatua (AVEFA) [11], 60%; in experiment [12], 100%.
`CCc1ccc(-c2ccc(Cl)cc2)cc1C1=C(O)C(C)(C)[S+]([O-])C(C)(C)C1=O` (stereo not drawn) [Compound C-2]: the pest or weed control at 125 g/ha in experiment [1] worked out at 100%; in experiment [2], 70%; with Setaria faberi (SETFA) [3], 90%; in the experiment with Lolium perenne (LOLPE) [4], 60%; with Avena fatua (AVEFA) [5], 70%; in [6] it was 90%. Also, the pest or weed control at 250 g/ha in [7] was determined as 100%; in experiment [8] it was 10%; in the experiment with Setaria faberi (SETFA) [9], 70%; with Lolium perenne (LOLPE) [10], 10%; with Avena fatua (AVEFA) [11], 10%; in experiment [12] it was 100%.
For `CCc1ccc(-c2ccc(Cl)c(F)c2)cc1C1=C(O)C(C)(C)OC(C)(C)C1=O` [Compound A-43], the pest or weed control at 125 g/ha came to 100% in experiment [1]; 80% in [2]; 100% with Setaria faberi (SETFA) [3]; 80% in the experiment on Lolium perenne (LOLPE) [4]; 90% with Avena fatua (AVEFA) [5]; 100% in experiment [6]. The pest or weed control at 250 g/ha was determined as 100% in experiment [7]; 80% in experiment [8]; 100% with Setaria faberi (SETFA) [9]; 80% with Lolium perenne (LOLPE) [10]; 90% in the experiment with Avena fatua (AVEFA) [11]; 100% in experiment [12].
As to `Cc1ccc(-c2ccc(Cl)cc2Cl)cc1C1=C(O)C(C)(C)OC(C)(C)C1=O` [Compound A-49], the pest or weed control at 125 g/ha in [1] turned out to be 80%; in experiment [2], 50%; in the experiment on Setaria faberi (SETFA) [3], 50%; with Lolium perenne (LOLPE) [4], 80%; in the experiment with Avena fatua (AVEFA) [5], 70%; in [6], 70%. For the same compound, the pest or weed control at 250 g/ha in experiment [7] is 100%; in experiment [8], 0%; in the experiment on Setaria faberi (SETFA) [9] it was 50%; in the experiment with Lolium perenne (LOLPE) [10], 20%; in the experiment on Avena fatua (AVEFA) [11] it was 20%; in experiment [12] it was 50%.

Values taken from patent publication US8680012B2, “4-phenyl-pyrane-3,5-diones,4-phenyl-thiopyrane-3,6-diones and cyclohexanetriones as novel herbicides” (Syngenta Crop Protection LLC, priority 2006, dated 2014).
